Data taken from publication PMC8779255, “Determining the Anticancer Activity of Sphingosine Kinase Inhibitors Containing Heteroatoms in Their Tail Structure” (Pharmaceutics, 2022).

Experiments:
HCT116 cells = test: Clonogenic (colony formation) assay; type: cell-based, human; conditions: HCT116, 5, 10 and 20 μM
Protocol: (§1) Cell proliferation was assayed by in vitro clonogenic assay. To perform the clonogenic assay, HT29 and HCT116 cells (1000 cells/well) were grown in 6-well plates for 24 h. Cells were treated with compound 10 and FTY720 in different concentrations for 12 h and changed fresh medium. Colonies were allowed to grow for two weeks by changing to a fresh medium every 3 days. Colonies were stained with 0.1% crystal violet prepared in 25% […] for 30 min and washed with running water and photographed with Canon Rebel T6i (Tokyo, Kanto, Japan). Colonies were counted using Image J software version 1.53i, National Institutes of Health, Bethesda, MD, USA). Plating efficiency (PE) and surviving fraction (SF) was calculated using the following formula. (1) [Plating efficiency (PE)]=Number of colony count in control/Number of cell seeded [Surviving Fraction]=Number of colony count /Number of cell seeded […]

HT29 cells = test: Clonogenic (colony formation) assay; type: cell-based, human; conditions: HT29, 5, 10 and 20 μM
Protocol: as §1

[1] = test system: sphingosine in HCT116 cells; test: Sphingosine ELISA of cell lysate; type: cell-based, human; conditions: 24 h, vs nontreated control
Protocol: (§2) The cellular levels of S1P, sphingosine, and ceramide were detected using an ELISA assay kit (MyBioSource, Inc., San Diego, CA, USA) according to the manufacturer’s instruction. For S1P ELISA, 100 µL cell lysates or standards were added in pre-coated ELISA wells, incubated for 90 min at 37 °C, and treated with 1x biotinylated anti S1P antibody for 1 h. Following treatment of HRP conjugated secondary antibody, the substrate was added and allowed to change the color for 15 min; then, the stop solution was added and absorbance was measured at 450 nm using a Multiskan GO (Thermo Scientific, Waltham, MA, USA) microplate spectrophotometer. […] A stop solution (50 µL) was added to each well, and optical density was measured at 450 nm using a microplate reader. […] After incubation, 50 µL substrate A and B was added to the plate and incubated at 37 °C for 20 min; a stop solution (50 µL) was added to each well and optical density was determined at 450 nm using a microplate reader. The concentration of S1P, sphingosine, and ceramide were calculated as ng/mL using respective standard curves constructed by Skanlt microplate reader software 5.0 (Thermo Scientific, Waltham, MA, USA).

ceramide in HCT116 cells = test: Ceramide ELISA of cell lysate; type: cell-based, human; conditions: HCT116, 20 µM, 24 h
Protocol: as §2

PP2A in HCT116 cells = target: T1, PP2A in HCT116 cells (Homo sapiens, UniProt P67775); test: PP2A activity assay (immunoprecipitation kit); type: cell-based; conditions: HCT116, 24 h, 20 µM of compounds 10, 11 and 13; vs nontreated control cells
T1 construct: endogenous in cells; host or cells: HCT116
T1 sequence (P67775 whole entry): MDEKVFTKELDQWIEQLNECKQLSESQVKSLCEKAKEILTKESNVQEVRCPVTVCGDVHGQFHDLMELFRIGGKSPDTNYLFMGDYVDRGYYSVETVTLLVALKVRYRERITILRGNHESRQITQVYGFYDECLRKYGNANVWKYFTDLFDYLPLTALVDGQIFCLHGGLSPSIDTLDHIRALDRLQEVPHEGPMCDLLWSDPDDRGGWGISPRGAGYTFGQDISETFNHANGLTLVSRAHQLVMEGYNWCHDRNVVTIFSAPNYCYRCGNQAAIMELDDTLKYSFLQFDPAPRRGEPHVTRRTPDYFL
Protocol: The activity of PP2A was measured by using the PP2A kit according to the manufacturer’s instruction. The cell lysate was incubated with anti PP2A, C subunit antibody, and protein A agarose slurry for 2 h at 4 °C. The phosphopeptide solution (60 µL) was mixed and incubated at 30 °C for 10 min in a shaker. After a brief centrifuge, a 25 µL sample was liquated in ½ volume microplate and 100 µL malachite green phosphate detection working solution was added. After color development, absorbance was taken at 650 nm in a Multiskan GO microplate reader. A phosphate standard curve was constructed using phosphate standard, and results were calculated using this standard curve. This experiment was repeated three times (n = 6).

[2] = test system: AKT and ERK phosphorylation in HCT116 cells; test: Western blotting of pAKT and pERK; type: cell-based, human; conditions: HCT116, 20 µM
Protocol: The cell lysate was prepared after successive treatment using mammalian protein extraction buffer (Organic buffer + 10 mM NaCl + detergent pH 7.5) mixed with 1% protease/phosphatase inhibitor cocktail; protein was quantified with BCA assay, boiled at 95 °C for 10 min by adding sample loading buffer, separated using SDS-PAGE, and transferred into methanol-activated PVDF membrane. Primary antibodies were probed overnight in PVDF membrane at 4 °C and […] with subsequent HRP anti-mouse and anti-rabbit secondary antibodies at room temperature. Then, membranes were washed with TBST buffer, and images were detected by Amersham Imager 680 (GE Healthcare; Leiden, WZ, The Netherlands) using ECL solution. Band intensities were analyzed and quantified using Image J software (version 1.53i).

CYP3A4 = target: T2, CYP3A4 (Homo sapiens, UniProt P08684); test: Inhibition of CYP enzymes activity, human liver microsomes; type: in vitro ADME; conditions: human liver microsomes 0.25 mg/mL, 10 μM, midazolam substrate
T2 construct: Human liver microsomes (0.25 mg/mL); from tissue; host or cells: human liver microsomes
T2 sequence (P08684 whole entry): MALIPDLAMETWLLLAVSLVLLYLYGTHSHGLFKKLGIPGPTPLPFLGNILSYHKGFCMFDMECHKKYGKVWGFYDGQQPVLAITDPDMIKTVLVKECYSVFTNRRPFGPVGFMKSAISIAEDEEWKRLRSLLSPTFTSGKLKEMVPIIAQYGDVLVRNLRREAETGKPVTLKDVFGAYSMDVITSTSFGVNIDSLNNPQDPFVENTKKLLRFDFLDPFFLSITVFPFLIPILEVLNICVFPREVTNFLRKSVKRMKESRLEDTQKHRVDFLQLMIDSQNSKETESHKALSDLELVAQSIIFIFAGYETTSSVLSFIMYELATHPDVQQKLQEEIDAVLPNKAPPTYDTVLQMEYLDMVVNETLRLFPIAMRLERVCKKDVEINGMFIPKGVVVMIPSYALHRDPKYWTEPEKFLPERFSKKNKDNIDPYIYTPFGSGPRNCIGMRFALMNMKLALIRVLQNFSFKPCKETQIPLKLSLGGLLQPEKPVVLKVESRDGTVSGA
Protocol: By simultaneously analyzing metabolites, the ability of the six compounds to inhibit drug metabolism enzymes was evaluated.
(§3) Metabolites of each CYP coenzyme indicator drug generated through the above reaction were analyzed using the Shimadzu Nexera XR system and TSQ vantage (Thermo). The HPLC column was a Kinetex C18 column (2.1 × 100 mm^2, 2.6 μm particle size; Phenomenex, Torrance, CA, USA), and the mobile phase was distilled water (A) containing 0.1% formic acid and acetonitrile (B) containing 0.1% formic acid. […] The generated metabolites were quantified using MRM (Multiple Reaction Monitoring) quantification modes, and data were analyzed using Xcalibur (version 1.6.1).

[3] = In vitro metabolic stability in liver microsomes
Protocol: Microsome incubation was measured in triplicate in a 1.5 mL Eppendorf tube with 0.1 M potassium phosphate buffer (pH 7.4). […] It has a final volume of 100 mL in the presence of an NADPH regeneration system. In the final incubation mixture, 0.5 mg/mL HLM, 0.1 M potassium phosphate buffer (pH 7.4), and NADPH regeneration system (1 mM NADPH, 10 mM MgCl2) were included. In the pre-incubation mixture, HLM was added, and the mixture was run in a shaking incubator at approximately 350 rpm and 37 °C for 5 min under a Thermomixer (Eppendorf, Hamburg, Germany). Reactions were initiated by the addition of 1 mM NADPH and then quenched by the addition of 40 μL of ice-cold acetonitrile containing 10 μM chlorpropamide (CPP) as an internal standard at 0 and 30 min. After quenching, centrifugation of the incubation mixture was performed at 15,000× g for 5 min at 4 °C. An aliquot of 2 µL of the supernatant was injected into the LC-MS/MS system. The LC-MS/MS system was Xcalibur version 1.1.1 (Thermo Fisher Scientific Inc., Waltham, MA, USA).

CYP1A2 = target: T3, CYP1A2 (Homo sapiens, UniProt P05177); test: Inhibition of CYP enzymes activity, human liver microsomes; conditions: human liver microsomes 0.25 mg/mL, 10 μM, phenacetin substrate
T3 sequence (P05177 1-516): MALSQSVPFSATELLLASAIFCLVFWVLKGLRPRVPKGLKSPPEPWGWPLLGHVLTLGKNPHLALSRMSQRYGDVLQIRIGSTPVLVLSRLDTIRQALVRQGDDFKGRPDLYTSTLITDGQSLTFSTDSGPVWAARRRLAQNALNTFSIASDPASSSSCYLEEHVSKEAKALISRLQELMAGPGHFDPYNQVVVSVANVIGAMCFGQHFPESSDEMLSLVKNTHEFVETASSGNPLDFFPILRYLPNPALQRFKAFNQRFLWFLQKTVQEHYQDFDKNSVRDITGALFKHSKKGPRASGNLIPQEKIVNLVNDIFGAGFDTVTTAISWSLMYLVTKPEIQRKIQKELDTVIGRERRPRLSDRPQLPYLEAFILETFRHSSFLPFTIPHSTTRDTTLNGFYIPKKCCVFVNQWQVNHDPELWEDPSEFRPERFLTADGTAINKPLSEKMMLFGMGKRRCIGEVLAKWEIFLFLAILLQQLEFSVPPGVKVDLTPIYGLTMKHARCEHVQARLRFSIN
Protocol: (§4) Afterward, to terminate the reaction, an acetonitrile solution containing an internal standard (terfenadine) was added, centrifuged for 5 min (14,000 rpm, 4 °C), and the supernatant was injected into the LC-MS/MS system. By simultaneously analyzing metabolites, the ability of the six compounds to inhibit drug metabolism enzymes was evaluated.
as §3

CYP2D6 = CYP2D6 (Homo sapiens, UniProt P10635); test: as above; conditions: human liver microsomes 0.25 mg/mL, 10 μM, dextromethorphan substrate
CYP2D6, sequence (P10635 whole entry): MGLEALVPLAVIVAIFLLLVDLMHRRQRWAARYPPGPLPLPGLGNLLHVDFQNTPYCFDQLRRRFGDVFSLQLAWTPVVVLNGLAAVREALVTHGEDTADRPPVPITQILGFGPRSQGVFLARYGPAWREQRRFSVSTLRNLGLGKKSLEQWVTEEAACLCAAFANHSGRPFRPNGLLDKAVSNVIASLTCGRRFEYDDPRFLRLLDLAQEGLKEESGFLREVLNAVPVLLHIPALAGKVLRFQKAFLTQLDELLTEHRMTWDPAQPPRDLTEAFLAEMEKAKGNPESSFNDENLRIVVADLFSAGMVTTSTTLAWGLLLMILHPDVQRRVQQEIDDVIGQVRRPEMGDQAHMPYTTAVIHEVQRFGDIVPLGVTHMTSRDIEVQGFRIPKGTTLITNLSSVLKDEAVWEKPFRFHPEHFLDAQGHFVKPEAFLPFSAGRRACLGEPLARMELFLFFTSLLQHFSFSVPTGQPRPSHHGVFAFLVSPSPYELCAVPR
Protocol: as §4, §3

- PP2A activity increase (PP2A in HCT116 cells): 1.73 fold
- CYP3A4 activity (% of control activity) (CYP3A4): >100%
- liver microsomal stability, Human (%) ([3]; % remaining after 30 min, 0.5 mg/mL microsomes, NADPH): 70.3%
- liver microsomal stability (in words) ([3]; human): stable
- CYP1A2 activity (% of control activity) (CYP1A2): >100%
- CYP2D6 activity (% of control activity) (CYP2D6): 87.4%
Compound: CCCCCCCOc1ccc(CCN2CCN(CCO)CC2)cc1 [Compound 10, 2-(4-(4-(Heptyloxy)phenethyl)piperazin-1-yl)ethanol]
- colony formation capacity (HCT116 cells): effectively inhibits the colony formation capacity
- colony formation capacity (HT29 cells): effectively inhibits the colony formation capacity
- sphingosine level increase ([1]; HCT116, 10 µM): 1.42 fold
- sphingosine level increase ([1]; HCT116, 20 µM): 1.74 fold
- ceramide level (ceramide in HCT116 cells): increased
- phosphorylation of AKT and ERK [2]: significantly reduced phosphorylation of AKT and ERK
